Counter-ions that a name gives are not always drawn. Like-named read-outs stand apart in the source and are kept apart here.
How the values were obtained:
[1] = molecular target: T1, hD2S (cloned human dopamine D2S receptor) (Homo sapiens, UniProt P14416); assay: Determination of Ki at D2S receptor (radioligand binding, [3H]-Raclopride); conditions: CHO-K1 recombinant cells, [3H]-Raclopride 4 nM
T1 construct: expressed in transfected cells; host or cells: CHO-K1
Outline: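 Displacement of 4 nM [3H]-Raclopride from membranes of CHO-K1 cells expressing the receptor, 2 h at r.t. in 50 mM Tris-HCl pH 7.4 with 120 mM NaCl, 5 mM KCl, 5 mM MgCl2, 1 mM EDTA. Non-specific binding defined with 0.1 mM haloperidol; filter-bound radioactivity compared with control.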

[2] = Rodent brain penetration study; assay type: in vivo; conditions: rat, po, fed male Wistar rats, 3 mg/kg p.o., mean ± S.D, n = 3, read-out: Rat Brain Penetration (Cbrain/Cplasma) at 3 mg/kg, p.o. @ 1 h
Description: Male Wistar rats (260±40 g) were used as experimental animals. Three animals were housed in each cage. Animals were given water and food ad libitum throughout the experiment and maintained on a 12 h light/dark cycle.
Brain penetration was determined in discrete manner in rats. One day prior to dosing, male Wistar rats were acclimatized and randomly grouped according to their body weight. At each time point (0.50, 1 and 2 h), n=3 animals were used.
The test compounds were suitably preformulated and administered orally at (free base equivalent) 3 mg/kg. Blood samples were removed via cardiac puncture under isoflurane anesthesia. The animals were sacrificed to collect brain tissue. Plasma was separated and brain samples were homogenized. Plasma and brain homogenates were stored frozen at −20° C. until analysis. The concentrations of the test compounds in plasma and brain were determined using LC-MS/MS method.
The test compounds were quantified in plasma and brain homogenate by qualified LC-MS/MS method using suitable extraction technique in the calibration range of 1-500 ng/mL. Study samples were analyzed using calibration samples in the batch and quality control samples spread across the batch. Extent of brain-plasma ratio (Cbrain/Cplasma) was calculated.

[3] = molecular target: T2, recombinant rat 5-HT7 receptor (Rattus norvegicus, UniProt P32305); assay: Determination of Kb at 5-HT7 receptor, pCRE-Luc reporter gene assay in CHO cells; assay type: cell-based; conditions: for antagonistic activity at rat recombinant 5-HT7 receptor: pCRE-Luc reporter gene assay
T2 construct: expressed in transfected cells
Description: A stable CHO cell line expressing recombinant rat 5-HT7 receptor and pCRE-Luc reporter system was used for cell-based assay. The assay offers a non-radioactive based approach to determine binding of a compound to GPCRs. In this specific assay, the level of intracellular cAMP which is modulated by activation or inhibition of the receptor is measured. The recombinant cells harbor luciferase reporter gene under the control of cAMP response element.
The above cells were grown in 96 well clear bottom white plates in Hams F12 medium containing 10% fetal bovine serum (FBS). Prior to the addition of compounds or standard agonist, cells were serum starved overnight. Increasing concentrations of test compound were added along with 1 μM of serotonin in Opti-MEM medium to the cells. The incubation was continued at 37° C. in CO2 incubator for 4 hours. Medium was removed and cells were washed with phosphate buffered saline. The cells were lysed and luciferase activity was measured in a Luminometer. Luminescence units were plotted against the compound concentrations using GraphPad Prism software. EC50 values of the compounds were defined as the concentration required in reducing the luciferase activity by 50%. The Kb values were calculated by feeding the concentration of agonist used in the assay and its EC50 value in the same software.

[4] = Rodent pharmacokinetic study; assay type: in vivo, Male Wistar rats; conditions: rat, plasma, mean ± S.D, n = 3; for bioavailability: oral 3 mg/kg vs intravenous 1 mg/kg, read-out: F (Bioavailability)
Description: Male Wistar rats (260±50 g) were used as experimental animals. Animals were housed individually in polypropylene cage. Two days prior to study, male Wistar rats were anesthetized with isoflurane for surgical placement of jugular vein catheter. Rats were randomly divided for oral (3 mg/kg) and intravenous (1 mg/kg) dosing (n=3/group) and fasted overnight before oral dosing (p.o.). However, food and water were provided ad libitum to the rats allocated for intravenous dosing.
At pre-determined time points, blood samples were collected through jugular vein and replenished with an equivalent volume of normal saline. Collected blood was transferred into a labeled eppendorf tube containing 10 μL of heparin as an anticoagulant. Typically blood samples were collected at 0.08, 0.25, 0.5, 1, 2, 4, 6, 8, and 24 h post dose. Blood samples were centrifuged at 4000 rpm for 10 min. Plasma was separated and stored frozen at −80° C. until analysis. The concentrations of the test compounds were quantified in plasma by qualified LC-MS/MS method using suitable extraction technique. The test compounds were quantified in the calibration range around 1-1000 ng/mL in plasma. Study samples were analyzed using calibration samples in the batch and quality control samples spread across the batch.
Pharmacokinetic parameters Cmax, AUCt, t1/2. Clearance and Bioavailability (F) were calculated using standard non-compartmental model by using Phoenix WinNonlin 6.0.4 version software package.

[5] = molecular target: T3, cloned human 5-HT2A receptor (Homo sapiens, UniProt P28223); assay: Determination of Ki at 5-HT2A receptor (radioligand binding, [3H]-Ketanserine); conditions: CHO-K1 recombinant cells, [3H]-Ketanserine 1.25 nM
T3 construct: expressed in transfected cells; host or cells: CHO-K1
Outline: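 Membranes from CHO-K1 cells expressing the receptor, incubated 1 h at r.t. with 1.25 nM [3H]-ketanserin in pH 7.4 Tris-HCl 50 mM, 4 mM CaCl2, 0.1% ascorbic acid. Nonspecific binding defined with 0.1 mM 1-naphthylpiperazine; bound label measured after filtration.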

[6] = rat receptor, with 1 μM serotonin, luciferase readout, read-out: Kb at 5-HT7 receptor
[7] = intravenous (bolus) 1 mg/kg, male Wistar rats
[8] = oral (gavage) 3 mg/kg, fasted male Wistar rats

T3 sequence (P28223 whole entry): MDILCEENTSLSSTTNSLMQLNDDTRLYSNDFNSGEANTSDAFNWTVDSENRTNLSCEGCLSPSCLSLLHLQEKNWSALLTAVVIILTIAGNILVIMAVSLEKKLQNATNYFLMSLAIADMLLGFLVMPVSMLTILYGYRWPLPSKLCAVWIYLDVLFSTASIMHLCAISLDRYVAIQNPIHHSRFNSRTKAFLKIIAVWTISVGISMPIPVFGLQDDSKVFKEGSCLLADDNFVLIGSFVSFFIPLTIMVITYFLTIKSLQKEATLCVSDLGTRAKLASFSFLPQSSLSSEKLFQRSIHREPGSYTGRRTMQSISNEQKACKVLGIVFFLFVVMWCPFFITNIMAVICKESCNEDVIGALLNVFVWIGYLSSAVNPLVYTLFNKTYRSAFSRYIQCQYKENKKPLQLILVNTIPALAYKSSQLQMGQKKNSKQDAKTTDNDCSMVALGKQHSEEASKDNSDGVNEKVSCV
T1 sequence (P14416 1-414 isoform P14416-2): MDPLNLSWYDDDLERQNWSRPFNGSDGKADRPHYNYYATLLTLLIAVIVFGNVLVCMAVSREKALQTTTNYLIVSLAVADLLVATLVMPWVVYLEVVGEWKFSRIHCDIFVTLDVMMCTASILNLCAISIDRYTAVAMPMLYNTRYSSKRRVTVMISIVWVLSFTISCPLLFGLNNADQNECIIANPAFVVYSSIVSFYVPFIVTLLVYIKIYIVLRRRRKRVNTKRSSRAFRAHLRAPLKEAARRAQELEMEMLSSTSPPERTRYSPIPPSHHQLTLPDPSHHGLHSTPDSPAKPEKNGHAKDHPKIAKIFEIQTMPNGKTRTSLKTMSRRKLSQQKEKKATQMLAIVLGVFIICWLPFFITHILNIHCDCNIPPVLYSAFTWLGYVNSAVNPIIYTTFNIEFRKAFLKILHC
T2 sequence (P32305 whole entry): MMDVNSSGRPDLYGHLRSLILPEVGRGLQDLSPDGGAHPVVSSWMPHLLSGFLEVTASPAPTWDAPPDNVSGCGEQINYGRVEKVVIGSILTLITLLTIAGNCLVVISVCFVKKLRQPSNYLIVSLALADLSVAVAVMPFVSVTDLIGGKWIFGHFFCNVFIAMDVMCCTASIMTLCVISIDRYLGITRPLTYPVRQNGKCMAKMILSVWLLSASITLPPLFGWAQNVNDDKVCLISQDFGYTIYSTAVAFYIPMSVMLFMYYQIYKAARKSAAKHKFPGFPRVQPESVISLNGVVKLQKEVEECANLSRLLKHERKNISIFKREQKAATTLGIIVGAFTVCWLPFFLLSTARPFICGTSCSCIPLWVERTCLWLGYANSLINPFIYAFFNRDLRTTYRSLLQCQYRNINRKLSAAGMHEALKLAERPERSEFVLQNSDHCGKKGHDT

**Q.** What does the source list for `O=C1C[C@@H]2CCCN2C(=O)N1CCCCN1CCN(c2nsc3ccccc23)CC1` [Example 2, 2-[4-(4-Benzo[d]isothiazol-3-yl-piperazin-1-yl)-butyl]-tetrahydro-pyrrolo[1,2-c]pyrimidine-1,3-dione oxalate]?
**A.** Ki ([1]; read-out: Ki hD2S): 5.4 nM; Kp at 1 h ([2]; brain/plasma): 0.49 ± 0.08; antagonistic activity at rat recombinant 5-HT7 receptor [3]: antagonistic activity; Kb [3, 6]: 0.6 nM; AUC(0-t) [4, 7]: 0.544 ± 0.019 µg·h/mL; clearance [4, 7]: 1.8 ± 0.06 L/h/kg; half-life [4, 7]: 2 ± 0.7 h; bioavailability ([4]; male Wistar rats): 15 ± 3%; AUC(0-t) [4, 8]: 0.244 ± 0.053 µg·h/mL; Cmax [4, 8]: 0.253 ± 0.059 µg/mL; half-life [4, 8]: 1.3 ± 0.1 h; Ki ([5]; read-out: Ki h5-HT2A): 0.6 nM

**Q.** Which Ki ([1]; read-out: Ki hD2S) does the source give for `O=C1C[C@@H]2CCCN2C(=O)N1CCCCN1CCN(c2cccc3sccc23)CC1` [Example 4, 2-[4-(4-Benzo[b]thiophen-4-yl-piperazin-1-yl)-butyl]-tetrahydro-pyrrolo[1,2-c]pyrimidine-1,3-dione oxalate] here?
**A.** 1.83 nM

**Q.** What about the Kp at 1 h ([2]; brain/plasma) of the same molecule?
**A.** 2.14 ± 0.88

**Q.** And the AUC(0-t) [4, 7]?
**A.** 0.35 ± 0.04 µg·h/mL

**Q.** And the clearance [4, 7]?
**A.** 2.88 ± 0.3 L/h/kg

**Q.** What about the half-life [4, 7] of the same molecule?
**A.** 0.8 ± 0.2 h

**Q.** What about the bioavailability ([4]; male Wistar rats) of the same molecule?
**A.** 16 ± 1%

**Q.** What about the AUC(0-t) [4, 8] of the same molecule?
**A.** 0.169 ± 0.014 µg·h/mL

**Q.** What about the Cmax [4, 8] of the same molecule?
**A.** 0.077 ± 0.002 µg/mL

**Q.** What about the half-life [4, 8] of the same molecule?
**A.** 1.1 ± 0.3 h

**Q.** What about the Ki ([5]; read-out: Ki h5-HT2A) of the same molecule?
**A.** 4.24 nM

**Q.** Which Ki ([1]; read-out: Ki hD2S) does the source give for `O=C1C[C@@H]2C[C@H](F)CN2C(=O)N1CCCCN1CCN(c2nsc3ccccc23)CC1` [Example 9, 2-[4-(4-Benzo[d]isothiazol-3-yl-piperazin-1-yl)-butyl]-6-fluoro-tetrahydro-pyrrolo[1,2-c]pyrimidine-1,3-dione oxalate] here?
**A.** 2.78 nM

**Q.** And the Kp at 1 h ([2]; brain/plasma)?
**A.** 0.4 ± 0.13

**Q.** And the “antagonistic activity at rat recombinant 5-HT7 receptor” value [3]?
**A.** antagonistic activity

**Q.** What about the Kb [3, 6] of the same molecule?
**A.** 0.7 nM

**Q.** What about the AUC(0-t) [4, 7] of the same molecule?
**A.** 0.415 ± 0.069 µg·h/mL

**Q.** And the clearance [4, 7]?
**A.** 2.4 ± 0.36 L/h/kg

**Q.** And the half-life [4, 7]?
**A.** 1.8 ± 0.1 h

**Q.** What about the bioavailability ([4]; male Wistar rats) of the same molecule?
**A.** 14 ± 2%

**Q.** And the AUC(0-t) [4, 8]?
**A.** 0.178 ± 0.023 µg·h/mL

**Q.** And the Cmax [4, 8]?
**A.** 0.164 ± 0.043 µg/mL

**Q.** And the half-life [4, 8]?
**A.** 1.4 ± 0.3 h

**Q.** What about the Ki ([5]; read-out: Ki h5-HT2A) of the same molecule?
**A.** 2.49 nM

**Q.** Which Ki ([1]; Ki hD2S) does the source give for `O=C1C[C@@H]2C[C@H]3C[C@H]3N2C(=O)N1CCCCN1CCN(c2nsc3ccccc23)CC1` [Example 11, 3-[4-(4-Benzo[d]isothiazol-3-yl-piperazin-1-yl)-butyl]-hexahydro-1b,3-diaza-cyclopropa[a]indene-2,4-dione oxalate] here?
**A.** 0.62 nM

**Q.** And the Kp at 1 h ([2]; in vivo)?
**A.** 0.09 ± 0.16

**Q.** What about the Kb [3] of the same molecule?
**A.** 0.17 nM

**Q.** What about the “antagonistic activity at rat recombinant 5-HT7 receptor” value [3] of the same molecule?
**A.** antagonistic activity

**Q.** What about the AUC(0-t) [4, 7] of the same molecule?
**A.** 0.412 ± 0.044 µg·h/mL

**Q.** What about the clearance [4, 7] of the same molecule?
**A.** 2.46 ± 0.3 L/h/kg

**Q.** What about the half-life [4, 7] of the same molecule?
**A.** 1.3 ± 0.1 h

**Q.** And the bioavailability ([4]; male Wistar rats)?
**A.** 8 ± 5%

**Q.** What about the AUC(0-t) [4, 8] of the same molecule?
**A.** 0.098 ± 0.063 µg·h/mL

**Q.** What about the Cmax [4, 8] of the same molecule?
**A.** 0.094 ± 0.052 µg/mL

**Q.** And the half-life [4, 8]?
**A.** 2 ± 0.2 h

**Q.** What about the Ki ([5]; Ki h5-HT2A) of the same molecule?
**A.** 1.02 nM

From patent US12391698B2, “Substituted piperidines and piperazines and methods for the treatment of CNS disorders” (SUVEN LIFE SCIENCES LIMITED, priority 2022, dated 2025)
